Values belong to the compound of their own block, whether it stands above or below them.
Tests used:
Assay in all cases: oxidation, absorbance at […] nm
Format in all cases: biochemical, Ganoderma lucidum
[1] = test system: T1, Glac15 (laccase, isoenzyme from G. lucidum 77002); conditions: optimum pH 4.5; 50 mM citrate-phosphate buffer; optimal temperature 45 °C; O2 as co-substrate
T1 construct: native secreted enzyme purified from culture filtrate (ultrafiltration, DEAE-Sepharose FF); signal peptide of 21 residues removed; N-terminus GIGPTTDLTISNADI; tryptic peptides matched Glac6 and Glac15 of strain Xiangnong No.1

[2] = test system: T1, Glac15 (laccase, isoenzyme from G. lucidum 77002); conditions: optimum pH 2.5; 50 mM citrate-phosphate buffer; optimal temperature 50 °C; O2 as co-substrate
[3] = test system: T1, Glac15 (laccase, isoenzyme from G. lucidum 77002); conditions: optimum pH 5.0; 50 mM citrate-phosphate buffer; optimal temperature 45 °C; O2 as co-substrate
[4] = test system: T1, Glac15 (laccase, isoenzyme from G. lucidum 77002); conditions: optimum pH 5.0; 50 mM citrate-phosphate buffer; optimal temperature 55 °C; O2 as co-substrate
[5] = test system: T1, Glac15 (laccase, isoenzyme from G. lucidum 77002); conditions: optimum pH 4.5; 50 mM citrate-phosphate buffer; optimal temperature 50 °C; O2 as co-substrate
[6] = test system: T1, Glac15 (laccase, isoenzyme from G. lucidum 77002); conditions: optimum pH 4.5; 50 mM citrate-phosphate buffer; optimal temperature 45 °C; O2 as co-substrate; remark: listed apart in the source

Km [1]: 120 µM
Compound: COc1cccc(OC)c1O [2,6-DMP, 2,6-dimethoxyphenol]

Km [2]: 19 µM
Compound: CCn1c(=NN=c2sc3cc(S(=O)(=O)O)ccc3n2CC)sc2cc(S(=O)(=O)O)ccc21 [ABTS, 2,2′-azino-bis-(3-ethylbenzothiazoline-6-sulfonic acid)]

Compound: Oc1ccccc1O [Catechol]
Km [3]: 780 µM

Km [4]: 790 µM
Compound: COc1ccccc1O [Guaiacol]

Km [5]: 890 µM
Compound: N[C@@H](Cc1ccc(O)c(O)c1)C(=O)O [L-dopamine]

Km [6]: 62 µM
Compound: COc1cc(C=NN=Cc2cc(OC)c(O)c(OC)c2)cc(OC)c1O [Syringaldazine]

From paper PMC4399389, “Identification of a laccase Glac15 from Ganoderma lucidum 77002 and its application in bioethanol production” (Biotechnology for Biofuels, 2015)
